{"source": "patent US20050170345A1", "about": "“Neuroglobin is up-regulated by and protects neurons from hypoxic-ischemic injury” (priority 2001, published 2005)", "key": {"cGMP": {"system": "cGMP", "experiment": "Intracellular cGMP content in HN33 cells (enzyme immunoassay)", "format": "cell-based, mouse", "experimental": "HN33 cells (4×10^4 cells in 100 μl) were plated on 96-well microtiter plates and treated with 50 μM hemin for 2, 8, 16, or 24 hours. Intracellular cGMP concentrations were measured in quadruplicate using a cGMP enzyme-immunoassay system (Amersham Pharmacia)."}, "K562 cells": {"system": "K562 cells", "conditions": "50 μM hemin for 2-3 days; cited from earlier work"}, "Ngb protein": {"system": "Ngb protein", "experiment": "Ngb protein expression in HN33 cells (Western blot)", "format": "cell-based, mouse", "experimental": "(§1) HN33 cells were cultured as described (Lee et al. (1990) J Neurosci. 10: 1779-1787; Shi et al. (1998) J Neurochem., 70:1035-1044; Jin et al. (2000) Proc Nati Acad Sci USA., 97:10242-10247). Cells were plated at 4×10^5 cells/well onto uncoated, 6-well plastic culture dishes in Dulbecco's modified Eagle's medium containing 10% (v/v) fetal bovine serum, 100 units/ml of penicillin and 100 μg/ml of streptomycin, and maintained at 37° C. in humidified 95% air/5% CO2. Cells were treated with hemin (typically 50 μM) or 8-Br-cGMP (10 μM) for up to 3 days, without daily replacement. To suppress sGC or PKG activity, cells were pretreated for 1 hour with inhibitors before adding other reagents.\nCells were washed twice in PBS, and whole-cell extracts were prepared by adding 10 volumes of 1× sample buffer containing 2% SDS, 100 mM dithiothreitol, 60 mM Tris (pH 6.8) and 10% glycerol, and boiled for 5 minutes. Protein concentrations were determined using Bradford Protein Assays (Bio-Rad, Hercules, Calif.); 30 μg of protein was analyzed by 12% or 15% SDS-PAGE and transferred to Immuno-Blot PVDF membranes (Bio-Rad). Membranes were probed with affinity-purified anti-Ngb antibody, which was produced by immunizing with a synthetic peptide corresponding to amino-acids 35-50 (NH2-CLSSPEFLDHIRKVML-COOH, (SEQ ID NO:11) of mouse Ngb (Sun et aL (2001 Proc Natl Acad Sci USA. 98:15306-15311),and the signal was detected with Boehringer Mannheim chemiluminescence blotting kits. Differences in protein expression on Western blots were quantified using a GS-710 calibrated imaging densitometer and Quantity One software (Bio-Rad)."}, "HN33 cells": {"system": "HN33 cells", "experiment": "HN33 cell viability (MTT)", "format": "cell-based, mouse", "experimental": "Cell viability was assessed by measuring formazan produced by the reduction of 3-(4,5-dimethylthiazol-2-yl)-2,5-diphenyl tetrazolium bromide (MTT) in viable cells.3 Cells were incubated with 5 mg/ml of MTT (Sigma) at 37° C. for 2 hours. The medium was removed and cells were solubilized with dimethylsufoxide and transferred to 96-well plates. The formazan reduction product was detected by measuring absorbance at 570 nm in a Cytofluor Series 4000 multi-well plate-reader (PerSeptive Biosystems, Framingham, Mass.). Results were expressed as a percentage of control absorbance, measured in normoxic cultures, after subtracting background absorbance (measured in freeze-thawed cultures) from all values."}, "[1]": {"system": "vascular endothelial growth factor", "conditions": "aortic smooth muscle cells; cited from earlier work"}, "[2]": {"system": "transient forebrain ischemia", "conditions": "rats, direct administration after transient forebrain ischemia; cited from earlier work"}, "Ngb mRNA": {"system": "Ngb mRNA", "experiment": "Ngb mRNA expression in HN33 cells (RT-PCR, quantitative RT-PCR, Northern blot)", "format": "cell-based, mouse", "experimental": "as §1\nRT-PCR and Northern blot analyses were carried out as described previously (Zhu and Zhang (1999) Biochem Biophys Res Commun., 258:87-93). Briefly, total RNA from treated and untreated cells was extracted using a RNeasy Mini Kit (QIAGEN Operon, Valencia, Calif.), and DNA-free total RNA (2 μg per sample) was reverse-transcribed into first-strand cDNA using the Reverse Transcription System and Oligo-dT12-18 (GIBCO-BRL, Rockville, Md.) (Id.). Sequences of the primers used for PCR amplification were: Ngb forward, 5′ CTCTGGAACATGGCACTGTC 3′ (nt 135-154, SEQ ID NO:7); Ngb reverse, 5′ GCACTGGCTCGTCTCTTACT 3′ (nt 547-528, SEQ ID NO:8); β-actin forward, 5′ CACAGGCATTGTGATGGACTC 3′ (nt 524-544, SEQ ID NO:9); β-actin reverse, 5′ GCTCAGGAGGAGCAATGATCT 3′ (nt 582-563, (SEQ ID NO:10). Primers were designed based on the published sequences of these genes and were synth esized by QIAGEN Operon. All PCR primer pairs gave rise to only one discrete band of the expected size. PCR reactions were carried out in a total volume of 25 μl containing 2 μl cDNA, 1×PCR buffer (Boehringer Mannheim, Mannheim, FRG), 200 μM dNTPs, 0.6 U Taq DNA polymerase (Boehringer Mannheim), and 0.2 μM primers. The optimal conditions for amplification (temperature and cycle number) were determined experimentally according to previously published procedures (Id.). Different ratios of Ngb to b-actin primer pairs were tested to ensure that Ngb and b-actin were amplified with similar efficiency, and a kinetic study was undertaken to establish the number of cycles sufficient to detect both Ngb and b-actin without reaching saturation for either. The parameters chosen for PCR amplification were 95° C. for 1 minute, 57° C. for 45 seconds, 72° C. for 1 minute for 25-30 cycles, and a final incubation at 72° C. for 10 minutes. PCR products were separated on 1.2% agarose gels, visualized by ethidium bromide staining, and quantified using a ChemiImage System (Alpha Innotech Corporation, San Leandro, Calif.).\nFor Northern blotting, 15 μg of total RNA from each sample was fractionated on 1% formaldehyde/agarose gels and transferred to Hybond-N nylon membranes (Amersham Pharmacia, Piscataway, N.J.). Filters were hybridized with probes for Ngb MRNA, and β-actin mRNA at 68° C. in hybridization buffer (Clontech, Palo Alto, Calif.). ^32P-radiolabeled DNA probes were synthesized using cDNA obtained from RT-PCR amplification.\nQuantitative RT-PCR analysis was carried out as described previously.8 PCR reactions were carried out in a total volume of 25 μl containing 1 μI cDNA, 1×PCR buffer (Boehringer Mannheim), 200 μM dNTPs, 0.6 U Taq DNA polymerase (Boehringer Mannheim), two pairs of primers (one pair for the Ngb gene, another for the b-actin gene used as an internal control). The optimal conditions for amplification (the proportion between the two pairs of primers, temperatures, and cycle numbers) were determined experimentally according to previously established procedures.8 PCR products were separated on 1.2% agarose gels, visualized by ethidium bromide staining, and quantified using a ChemiImage System (Alpha Innotech Corporation)."}}, "note": "Entries after “also recorded” stand apart in the source; their conditions may differ.", "data": [{"substance": "hemin", "values": [{"measurement": "cGMP levels by 24 hours", "setting": "cGMP; 50 μM hemin", "result": "returned to near basal levels"}, {"measurement": "increase in cGMP levels", "setting": "cGMP; 50 μM hemin for 2 to 12 hours", "result": "8- to 15 fold"}, {"measurement": "increase in cGMP levels (summary)", "setting": "cGMP; hemin", "result": "> 10", "unit": "fold"}, {"measurement": "cells producing a high level of hemoglobin", "setting": "K562 cells", "result": "more than 50%"}, {"measurement": "maximal increase in neuroglobin protein level", "setting": "Ngb protein; 50 μM hemin, 8-24 hours", "result": "about 4 fold"}, {"measurement": "persistence of Ngb protein induction", "setting": "Ngb protein; HN33 cells, 50 μM hemin", "result": "at least 3 days"}, {"measurement": "time at which induction of Ngb protein was evident", "setting": "Ngb protein; HN33 cells, 50 μM hemin", "result": 2, "unit": "h"}, {"measurement": "induction of Ngb protein", "setting": "Ngb protein; HN33 cells, 50 μM hemin for up to 3 days", "result": "about 4 times basal levels of expression"}, {"measurement": "difference in viability relative to control", "setting": "HN33 cells; 100 μM hemin, 24 hours, HN33 cells", "result": "significant (P<0.05) difference in viability"}, {"measurement": "reduction of cell viability", "setting": "HN33 cells; 100 μM hemin, HN33 cells, MTT", "result": "~15", "unit": "%"}, {"measurement": "effect on HN33 cell viability", "setting": "HN33 cells; hemin 0-50 μM for 24 h, or 50 μM for up to 3 days, MTT", "result": "no effect on cell viability; also recorded: does not alter HN33 cell viability"}, {"measurement": "effect on hypoxic induction of vascular endothelial growth factor", "setting": "[1]", "result": "suppress"}, {"measurement": "neuroprotection: viable neurons in cerebral cortex and striatum", "setting": "[2]", "result": "significantly increases the number of viable neurons"}, {"measurement": "maximal increase in neuroglobin mRNA level", "setting": "Ngb mRNA; 50 μM hemin, 8-24 hours", "result": "about 4 fold"}, {"measurement": "Ngb mRNA levels (Northern blot)", "setting": "Ngb mRNA; HN33 cells, 50 μM hemin for 16 hours", "result": "about 4 fold"}, {"measurement": "Maximal induction of Ngb mRNA expression (RT-PCR, normalized for β-actin)", "setting": "Ngb mRNA; HN33 cells, hemin 24 h, maximal at 25-50 μM", "result": 4, "unit": "fold"}]}]}
